Data taken from patent US5604236A, “Beta-carboline thromboxane synthase inhibitors” (Eli Lilly and Company, priority 1995, dated 1997).
pIC50: −log10 of the molar value.

How the values were obtained:
[1] = tested on: 6-keto-PGF1a (prostacyclin generation); conditions: stated as well known; result in words; cited from earlier work
[2] = tested on: 6-keto-PGF1a (prostacyclin generation); test: Serum 6-keto-PGF1a (prostacyclin generation) by radioimmunoassay in human whole blood; format: cell-based; conditions: for Serum 6-keto-PGF1a: vehicle 2.43
Experimental: (§1) The test compounds were dissolved in dimethylsulfoxide. The compound solutions were incubated with fresh whole human blood, that had been anticoagulated with 0.38% trisodium citrate, for 30 minutes at 37° C. After 30 minutes, 0.025 ml of 0.5M calcium chloride solution was added to each 1 ml of blood and further incubated for one hour at 37° C. Serum was prepared by centrifugation of the blood at 2000×g for 15 minutes in a Beckman table top centrifuge. Serum TXB2 and 6-keto-PGF1a, the stable metabolites of and markers of synthesis of TXA2 and prostacyclin respectively, were measured by radioimmunoassay by commonly used test methods (see, Refs.,1 & 2 below). Results from the radioimmunoassay of TXB2 were used to calculate the IC50 (concentration of compound required to reduce thromboxane generation to 50% of that obtained with vehicle alone).
Data determined from the radioimmunoassay of 6-keto-PGF1a (reflecting prostacyclin generation) allowed a determination of the specificity of the compound of example 1 for the inhibition of thromboxane synthase as indicated by increased levels of 6-keto-PGF1a relative to the less specific inhibition of cyclooxygenase by aspirin.

thromboxane synthase = target: T1, thromboxane synthase (Homo sapiens, UniProt P24557); test: Thromboxane Synthase Inhibition (TSI) Test, serum TXB2 by radioimmunoassay in human whole blood; format: cell-based; conditions: fresh whole human blood, 30 min at 37° C., then CaCl2 1 hour; TXB2 RIA; read-out: IC50 (concentration of compound required to reduce thromboxane generation to 50% of that obtained with vehicle alone)
T1 construct: incubated with fresh whole human blood, that had been anticoagulated with 0.38% trisodium citrate; from tissue; host or cells: fresh whole human blood (citrated, recalcified to clot)
T1 sequence (P24557 1-533): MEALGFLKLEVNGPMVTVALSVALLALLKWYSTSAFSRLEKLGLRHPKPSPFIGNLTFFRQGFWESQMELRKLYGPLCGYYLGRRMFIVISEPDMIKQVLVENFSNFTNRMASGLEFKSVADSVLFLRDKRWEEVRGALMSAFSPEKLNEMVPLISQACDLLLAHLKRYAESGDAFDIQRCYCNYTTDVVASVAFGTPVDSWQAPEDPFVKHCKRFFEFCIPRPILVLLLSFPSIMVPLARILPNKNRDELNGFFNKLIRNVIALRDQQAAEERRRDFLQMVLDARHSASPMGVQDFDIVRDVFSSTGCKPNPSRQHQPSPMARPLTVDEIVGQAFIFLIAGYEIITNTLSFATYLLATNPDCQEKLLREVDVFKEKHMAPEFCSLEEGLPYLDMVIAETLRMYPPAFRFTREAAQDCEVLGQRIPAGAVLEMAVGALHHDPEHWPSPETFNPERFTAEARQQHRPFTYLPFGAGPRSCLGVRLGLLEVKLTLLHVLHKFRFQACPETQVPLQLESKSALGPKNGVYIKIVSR
Experimental: as §1, with “The ability of the compounds of the present invention to be an effective thromboxane synthase inhibitors were evaluated in the following Thromboxane Synthase Inhibition (TSI) Assay with the results shown in Table 2 below: The test” for “The test”

TXB2 = test: Serum TXB2 levels ex vivo after oral or i.v. administration to rats; format: in vivo; conditions: rat
Experimental: The blood was allowed to clot in glass tubes for 1 hour at 37° C. Serum was collected after sedimentation of the clot by centrifugation at 2000×g for 15 minutes in a Beckman table top centrifuge. The levels of TXB2 were measured in the serum by radioimmunoassay.

CC(=O)Oc1ccccc1C(=O)O [Aspirin]
generation of 6-keto-PGF1a [1]: completely inhibit

O=C(O)CCCCCn1c2ccccc2c2ccncc21 [Example 1, 9H-Pyrido(3,4-β)indole-9-hexanoic acid]
Serum 6-keto-PGF1a ([2]; 0.001 μM): 3.01 ng/mL | Serum 6-keto-PGF1a ([2]; 0.01 μM): 5.09 ng/mL | Serum 6-keto-PGF1a ([2]; 0.1 μM): 7.07 ng/mL | Serum 6-keto-PGF1a ([2]; 1 μM): 7.71 ng/mL | Serum 6-keto-PGF1a ([2]; 10 μM): 7.82 ng/mL | effect on human serum 6-keto-PGF1a levels ([2]; human serum, result in words): dose-dependent stimulatory effect | pIC50 (thromboxane synthase): 7.28 | Serum TXB2 (% control) (TXB2; i.v., 0.01 mg/kg, 15 minutes): 69 % control | Serum TXB2 (% control) (TXB2; i.v., 0.1 mg/kg, 15 minutes): 14 % control | Serum TXB2 (% control) (TXB2; i.v., 1 mg/kg, 15 minutes): 4 % control | availability by oral and i.v. routes (TXB2; inferred from decreased serum TXB2, result in words): availability of the compounds by both oral and i.v. routes | Serum TXB2 (% control) (TXB2; oral, 0.1 mg/kg, one hour): 54 % control | Serum TXB2 (% control) (TXB2; oral, 1 mg/kg, one hour): 16 % control | Serum TXB2 (% control) (TXB2; oral, 10 mg/kg, one hour): 2 % control | Serum TXB2 (% control) (TXB2; oral, 100 mg/kg, one hour): 1 % control

O=C(O)CCCn1c2ccccc2c2ccncc21 [Example 2, 9H-Pyrido (3,4-β)indole-9-butanoic acid]
pIC50 (thromboxane synthase): 4.72

O=C(O)CCCCn1c2ccccc2c2ccncc21 [Example 3, 9H-Pyrido (3,4-β)indole-9-pentanoic acid]
pIC50 (thromboxane synthase): 7.00

O=C(O)CCCCCCn1c2ccccc2c2ccncc21 [Example 4]
pIC50 (thromboxane synthase): 6.68

O=C(O)CCCCCn1c2ccc(Br)cc2c2ccncc21 [Example 5, 6-Bromo-9H-pyrido(3,4-β)indole-9-hexanoic acid]
pIC50 (thromboxane synthase): 7.17

Cc1ccc2c(c1)c1ccncc1n2CCCCCC(=O)O [Example 6, 6-Methyl-9H-pyrido(3,4-β)indole-9-hexanoic acid]
pIC50 (thromboxane synthase): 7.51

COc1ccc2c(c1)c1ccncc1n2CCCCCC(=O)O [Example 7, 6-Methoxy-9H-pyrido(3,4-β)indole-9-hexanoic acid]
pIC50 (thromboxane synthase): 7.31

O=C(O)CCCCCn1c2ccc([N+](=O)[O-])cc2c2ccncc21 [Example 8, 6-Nitro-9H-pyrido(3,4-β)indole-9-hexanoic acid]
pIC50 (thromboxane synthase): 7.04
